ChEMBL document CHEMBL1201862, “PubChem BioAssay data set” (2004)
Activity calls are given as the source filed them.

Legend:
[1] = molecular target: Induced myeloid leukemia cell differentiation protein Mcl-1 (Homo sapiens, UniProt Q07820); type: functional
Ephrin type-A receptor 4 = Ephrin type-A receptor 4 (Mus musculus, UniProt Q03137); test: EphA4 ligand-binding antagonists – biochemical, colorimetric, mouse EphA4, primary screen (AID 689); type: functional
[2] = molecular target: T1, Voltage-gated N-type calcium channel alpha-1B subunit/Amyloid beta A4 precursor protein-binding family A member 1 (Homo sapiens, UniProt Q00975+Q02410); type: protein assay
Estrogen receptor = molecular target: T2, Estrogen receptor (Homo sapiens, UniProt P03372);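 note: potency for inhibiting coactivator peptide recruitment to the receptor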
T2 sequence (P03372 whole entry): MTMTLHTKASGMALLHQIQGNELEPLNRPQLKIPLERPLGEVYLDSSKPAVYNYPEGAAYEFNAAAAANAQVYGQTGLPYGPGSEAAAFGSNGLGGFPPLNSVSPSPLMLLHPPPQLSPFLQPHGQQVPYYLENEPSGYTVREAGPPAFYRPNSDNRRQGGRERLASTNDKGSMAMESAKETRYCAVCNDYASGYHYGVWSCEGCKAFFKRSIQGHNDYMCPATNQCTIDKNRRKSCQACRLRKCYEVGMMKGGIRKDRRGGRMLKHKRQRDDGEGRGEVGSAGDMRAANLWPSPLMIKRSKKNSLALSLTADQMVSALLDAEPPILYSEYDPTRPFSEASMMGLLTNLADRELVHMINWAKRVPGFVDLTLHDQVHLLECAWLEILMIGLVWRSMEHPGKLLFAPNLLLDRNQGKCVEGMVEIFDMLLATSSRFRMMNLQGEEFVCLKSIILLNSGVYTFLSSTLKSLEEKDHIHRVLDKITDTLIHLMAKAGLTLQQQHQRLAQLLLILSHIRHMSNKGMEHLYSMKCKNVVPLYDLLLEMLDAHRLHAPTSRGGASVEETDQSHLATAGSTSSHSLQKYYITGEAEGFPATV

[3] = viability loss of HPDE-C7K cells – cell-based, fluorescence, HTS, primary screen (AID 431); type: functional; settings: Homo sapiens
[4] = molecular target: T1, Voltage-gated N-type calcium channel alpha-1B subunit/Amyloid beta A4 precursor protein-binding family A member 1; type: protein assay; remark: listed apart in the source
[5] = HPDE-C7 pancreatic duct cell viability loss – fluorescence, HTS (AID 430); type: functional, cell-based; settings: Homo sapiens
Aspartyl aminopeptidase = Aspartyl aminopeptidase (Plasmodium falciparum 3D7, UniProt Q8I2J3)
Sequence of Aspartyl aminopeptidase (Q8I2J3 whole entry): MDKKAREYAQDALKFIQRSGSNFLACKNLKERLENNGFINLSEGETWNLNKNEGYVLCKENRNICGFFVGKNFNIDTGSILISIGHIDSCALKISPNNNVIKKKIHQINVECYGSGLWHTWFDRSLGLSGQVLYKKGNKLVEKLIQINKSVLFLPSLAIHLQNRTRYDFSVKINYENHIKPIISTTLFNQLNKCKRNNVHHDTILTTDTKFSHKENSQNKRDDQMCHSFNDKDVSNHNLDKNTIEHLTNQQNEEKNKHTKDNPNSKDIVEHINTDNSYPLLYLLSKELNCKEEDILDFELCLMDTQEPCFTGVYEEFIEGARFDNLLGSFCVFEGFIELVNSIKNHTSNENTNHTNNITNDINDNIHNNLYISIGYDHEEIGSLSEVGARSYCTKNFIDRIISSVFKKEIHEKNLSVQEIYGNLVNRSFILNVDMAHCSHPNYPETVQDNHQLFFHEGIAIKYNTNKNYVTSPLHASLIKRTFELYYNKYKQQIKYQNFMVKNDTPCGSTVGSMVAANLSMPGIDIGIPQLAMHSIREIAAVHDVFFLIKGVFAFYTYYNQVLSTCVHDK

Procathepsin L = Procathepsin L (Homo sapiens, UniProt P07711)
Sequence of Procathepsin L (P07711 whole entry): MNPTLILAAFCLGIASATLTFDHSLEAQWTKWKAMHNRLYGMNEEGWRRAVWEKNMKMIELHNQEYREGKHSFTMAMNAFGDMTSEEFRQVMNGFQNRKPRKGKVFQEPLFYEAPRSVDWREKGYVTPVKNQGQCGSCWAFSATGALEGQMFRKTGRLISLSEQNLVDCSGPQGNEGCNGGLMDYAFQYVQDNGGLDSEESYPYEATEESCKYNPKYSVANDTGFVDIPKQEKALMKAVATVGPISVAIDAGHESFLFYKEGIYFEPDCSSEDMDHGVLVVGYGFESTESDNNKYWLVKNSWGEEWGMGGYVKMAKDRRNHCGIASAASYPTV

[6] = molecular target: Heat shock protein HSP 90-alpha (Homo sapiens, UniProt P07900); type: functional, organism-based
[7] = molecular target: T3, Intestinal-type alkaline phosphatase (Homo sapiens, UniProt P09923); test: human intestinal alkaline phosphatase activators, dose response, biochemical, luminescence, uHTS hits (AID 463120); type: functional
T3 sequence (P09923 whole entry): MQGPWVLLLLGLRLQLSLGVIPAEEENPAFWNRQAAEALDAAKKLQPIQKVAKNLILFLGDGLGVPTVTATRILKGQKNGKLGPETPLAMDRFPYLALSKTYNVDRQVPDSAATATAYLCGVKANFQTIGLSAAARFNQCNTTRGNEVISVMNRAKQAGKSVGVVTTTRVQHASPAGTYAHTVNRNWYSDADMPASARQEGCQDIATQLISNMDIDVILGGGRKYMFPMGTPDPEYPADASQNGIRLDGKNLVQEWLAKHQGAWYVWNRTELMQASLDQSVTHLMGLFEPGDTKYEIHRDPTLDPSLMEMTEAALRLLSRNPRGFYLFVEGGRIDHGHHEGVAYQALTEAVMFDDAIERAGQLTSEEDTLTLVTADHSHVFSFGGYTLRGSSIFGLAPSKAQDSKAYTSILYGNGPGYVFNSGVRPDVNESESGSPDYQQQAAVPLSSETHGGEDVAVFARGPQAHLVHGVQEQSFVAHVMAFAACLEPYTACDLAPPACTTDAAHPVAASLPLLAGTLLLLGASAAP

INS1 = test: INS-1E survival protection against cytokine death – cell-based, luminescence, retest, dose response (AID 449756); type: functional; settings: Rattus norvegicus;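 note: cell death triggered by IL-1 beta plus TNF-alpha plus IFN-gamma mixture; protective hits raise ATP signal compared with cytokine alone wells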
[8] = molecular target: T4, Intestinal-type alkaline phosphatase (Mus musculus, UniProt P24822); test: PubChem AID 488875; type: functional
T4 sequence (P24822 whole entry): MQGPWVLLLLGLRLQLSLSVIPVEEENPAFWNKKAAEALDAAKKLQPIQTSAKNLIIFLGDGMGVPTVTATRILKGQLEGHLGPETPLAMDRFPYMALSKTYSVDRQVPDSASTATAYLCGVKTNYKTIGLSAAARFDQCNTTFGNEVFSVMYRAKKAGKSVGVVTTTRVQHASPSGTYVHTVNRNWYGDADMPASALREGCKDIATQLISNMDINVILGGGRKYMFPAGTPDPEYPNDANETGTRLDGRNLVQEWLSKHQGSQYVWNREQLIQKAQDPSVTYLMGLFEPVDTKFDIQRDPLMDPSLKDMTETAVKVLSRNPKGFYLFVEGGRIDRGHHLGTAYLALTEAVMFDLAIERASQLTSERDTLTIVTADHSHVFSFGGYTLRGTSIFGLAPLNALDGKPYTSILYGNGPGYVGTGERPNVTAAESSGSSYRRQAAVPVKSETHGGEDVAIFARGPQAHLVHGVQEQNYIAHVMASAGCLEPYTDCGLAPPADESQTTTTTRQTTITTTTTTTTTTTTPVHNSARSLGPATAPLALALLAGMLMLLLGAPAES

[9] = molecular target: T5, Alkaline phosphatase, tissue-nonspecific isozyme (Homo sapiens, UniProt P05186); test: activation of tissue-nonspecific alkaline phosphatase – biochemical, TNAP isozyme, human IAP uHTS hits, selectivity assay for human IAP activator project, dose response (AID 488886); type: functional;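 note: potency of compounds raising TNAP activity as a selectivity check on IAP activators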
T5 sequence (P05186 whole entry): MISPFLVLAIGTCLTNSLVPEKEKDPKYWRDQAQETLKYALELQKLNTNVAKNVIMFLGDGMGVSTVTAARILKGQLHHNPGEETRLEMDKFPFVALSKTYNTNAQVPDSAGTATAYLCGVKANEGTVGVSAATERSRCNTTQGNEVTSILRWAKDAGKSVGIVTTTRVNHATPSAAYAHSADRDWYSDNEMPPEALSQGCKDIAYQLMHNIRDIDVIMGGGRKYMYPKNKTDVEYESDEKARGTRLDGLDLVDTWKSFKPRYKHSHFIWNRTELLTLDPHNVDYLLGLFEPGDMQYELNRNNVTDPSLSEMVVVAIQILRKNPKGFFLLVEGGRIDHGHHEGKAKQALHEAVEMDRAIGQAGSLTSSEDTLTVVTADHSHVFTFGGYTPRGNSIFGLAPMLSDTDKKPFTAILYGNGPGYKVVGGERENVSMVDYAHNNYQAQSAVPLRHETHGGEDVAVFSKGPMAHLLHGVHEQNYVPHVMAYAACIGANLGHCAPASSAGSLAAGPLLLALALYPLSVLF

[10] = molecular target: T3, Intestinal-type alkaline phosphatase; test: activation of human intestinal alkaline phosphatase – biochemical, luminescent, uHTS hits, set 2, dose response (AID 488817); type: functional;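 note: potency of activators that raise enzyme activity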
[11] = molecular target: Acyl-homoserine lactone acylase PvdQ (Pseudomonas aeruginosa (strain LESB58), UniProt Q9I194); test: PvdQ acylase enzyme activity blockers – biochemical, fluorescence, plate reader and imaging, cherry-picks, dose response (AID 493231)
Sequence of Acyl-homoserine lactone acylase PvdQ (Q9I194 24-193 limits assumed): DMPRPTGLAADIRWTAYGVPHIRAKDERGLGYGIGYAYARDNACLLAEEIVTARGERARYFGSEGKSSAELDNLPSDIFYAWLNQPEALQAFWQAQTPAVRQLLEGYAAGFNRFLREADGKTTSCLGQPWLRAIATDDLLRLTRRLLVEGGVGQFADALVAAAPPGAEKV
Sequence of Acyl-homoserine lactone acylase PvdQ (Q9I194 217-762 limits assumed): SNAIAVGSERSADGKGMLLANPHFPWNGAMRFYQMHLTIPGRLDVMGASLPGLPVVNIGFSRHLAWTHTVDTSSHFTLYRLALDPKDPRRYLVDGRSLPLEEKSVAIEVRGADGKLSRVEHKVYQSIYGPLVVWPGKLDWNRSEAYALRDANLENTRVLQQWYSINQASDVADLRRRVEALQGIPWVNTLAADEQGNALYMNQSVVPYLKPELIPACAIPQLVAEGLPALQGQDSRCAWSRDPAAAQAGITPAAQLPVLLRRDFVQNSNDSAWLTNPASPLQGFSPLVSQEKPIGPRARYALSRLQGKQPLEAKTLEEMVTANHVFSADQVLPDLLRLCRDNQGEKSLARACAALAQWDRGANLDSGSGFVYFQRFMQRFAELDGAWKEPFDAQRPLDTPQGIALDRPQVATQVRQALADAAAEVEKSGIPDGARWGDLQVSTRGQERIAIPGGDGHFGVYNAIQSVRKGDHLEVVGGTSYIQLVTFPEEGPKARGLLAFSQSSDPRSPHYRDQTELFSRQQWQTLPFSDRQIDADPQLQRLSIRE

[12] = molecular target: T3, Intestinal-type alkaline phosphatase; test: activation of human intestinal alkaline phosphatase – biochemical, dose response (AID 488873); type: functional
[13] = molecular target: T5, Alkaline phosphatase, tissue-nonspecific isozyme; test: TNAP enzyme inhibition by screening hits, dose response, selectivity assay for mouse IAP inhibitor project, biochemical, human TNAP, uHTS hits (AID 488906); type: functional
Streptococcus = test: GAS UMAA2166 growth inhibition – luminescence, BacTiterGlo, counter-screen for streptokinase expression inhibitor project, dose response (AID 1915); type: functional, organism-based;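 note: potency for reduction of bacterial viability or growth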
[14] = system: Streptococcus sp. 'group A'; test: Streptococcus pyogenes SK(-)GAS viability under kanamycin – luminescence, BacTiterGlo, confirmation, counter-screen for streptokinase expression inhibitor project, dose response (AID 1900); type: functional, organism-based
[15] = molecular target: T4, Intestinal-type alkaline phosphatase; test: PubChem AID 488785; type: functional
Streptokinase A = molecular target: T6, Streptokinase A (Streptococcus pyogenes serotype M1, UniProt P10520); test: viability-normalized secreted streptokinase activity reduction – plasminogen activation absorbance, OD405, dose response (AID 1914); type: functional, Streptococcus pyogenes M1 GAS;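 note: secreted streptokinase activity via plasminogen activation per viability signal from cell pellet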
T6 sequence (P10520 whole entry): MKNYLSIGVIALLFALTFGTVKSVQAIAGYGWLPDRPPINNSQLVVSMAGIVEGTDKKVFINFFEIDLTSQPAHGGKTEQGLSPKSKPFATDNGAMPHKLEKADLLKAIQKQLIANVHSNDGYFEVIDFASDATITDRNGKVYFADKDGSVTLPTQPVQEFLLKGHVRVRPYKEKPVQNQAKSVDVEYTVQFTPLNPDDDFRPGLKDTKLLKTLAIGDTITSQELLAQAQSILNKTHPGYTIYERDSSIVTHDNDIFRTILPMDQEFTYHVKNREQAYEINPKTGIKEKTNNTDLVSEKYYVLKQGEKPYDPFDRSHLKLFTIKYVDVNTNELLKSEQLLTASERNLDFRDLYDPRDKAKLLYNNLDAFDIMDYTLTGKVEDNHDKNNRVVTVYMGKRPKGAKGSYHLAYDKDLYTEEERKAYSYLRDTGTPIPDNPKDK

Troponin, cardiac muscle = Troponin, cardiac muscle (Homo sapiens, UniProt P19429+P45379+P63316); test: Fluorescence-based biochemical high throughput dose response assay for activators of the calcium sensitivity of cardiac Regulated Thin Filaments (RTF). [Related pubchem assays (depositor defined):AID493008, AID493018, AID504382, AID504383]; type: protein-complex assay
Cytochrome P450 2D6 = Cytochrome P450 2D6 (Homo sapiens, UniProt P10635); test: qHTS Assay for Inhibitors and Substrates of Cytochrome P450 2D6. [Related pubchem assays: 410 ]; type: ADME; settings: read-out: Potency
Sequence of Cytochrome P450 2D6 (P10635 whole entry): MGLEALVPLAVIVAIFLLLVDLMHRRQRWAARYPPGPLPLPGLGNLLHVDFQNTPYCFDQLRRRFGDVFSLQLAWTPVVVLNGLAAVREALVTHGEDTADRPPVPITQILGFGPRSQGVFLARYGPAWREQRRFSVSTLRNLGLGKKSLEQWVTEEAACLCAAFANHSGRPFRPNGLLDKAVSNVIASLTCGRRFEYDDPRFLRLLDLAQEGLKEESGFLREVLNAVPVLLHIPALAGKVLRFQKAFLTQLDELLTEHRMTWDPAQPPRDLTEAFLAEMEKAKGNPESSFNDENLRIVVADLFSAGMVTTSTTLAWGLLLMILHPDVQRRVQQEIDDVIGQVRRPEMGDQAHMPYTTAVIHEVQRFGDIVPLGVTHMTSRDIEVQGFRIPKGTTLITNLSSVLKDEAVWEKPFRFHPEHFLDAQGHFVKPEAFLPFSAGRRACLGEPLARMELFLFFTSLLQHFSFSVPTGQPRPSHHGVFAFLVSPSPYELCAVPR

Cytochrome P450 2C19 [16] = molecular target: T7, Cytochrome P450 2C19 (Homo sapiens, UniProt P33261); test: qHTS Assay for Inhibitors and Substrates of Cytochrome P450 2C19. [Related pubchem assays: 410 ]; type: ADME; settings: read-out: Potency
T7 sequence (P33261 whole entry): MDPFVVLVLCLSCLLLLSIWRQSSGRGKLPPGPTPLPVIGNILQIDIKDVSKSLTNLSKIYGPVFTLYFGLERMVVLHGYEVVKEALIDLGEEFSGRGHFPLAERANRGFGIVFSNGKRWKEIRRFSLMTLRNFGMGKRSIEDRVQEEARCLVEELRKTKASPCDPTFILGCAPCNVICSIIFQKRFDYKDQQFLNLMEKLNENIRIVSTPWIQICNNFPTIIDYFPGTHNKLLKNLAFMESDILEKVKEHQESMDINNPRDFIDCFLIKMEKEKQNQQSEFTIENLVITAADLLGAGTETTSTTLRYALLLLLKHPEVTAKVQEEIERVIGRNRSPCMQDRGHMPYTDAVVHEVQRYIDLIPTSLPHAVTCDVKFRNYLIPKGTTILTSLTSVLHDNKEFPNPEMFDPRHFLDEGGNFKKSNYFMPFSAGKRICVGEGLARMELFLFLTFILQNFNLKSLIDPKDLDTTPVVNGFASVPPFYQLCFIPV

Aminopeptidase N = molecular target: T8, Aminopeptidase N (Plasmodium falciparum FcB1/Columbia, UniProt O96935); test: malaria alanyl aminopeptidase activity blockers – biochemical, fluorogenic H-Leu-NHMec substrate, 1536-well (AID 1445); set-up: species or system Plasmodium falciparum 3D7, 3D7
T8 sequence (O96935 whole entry): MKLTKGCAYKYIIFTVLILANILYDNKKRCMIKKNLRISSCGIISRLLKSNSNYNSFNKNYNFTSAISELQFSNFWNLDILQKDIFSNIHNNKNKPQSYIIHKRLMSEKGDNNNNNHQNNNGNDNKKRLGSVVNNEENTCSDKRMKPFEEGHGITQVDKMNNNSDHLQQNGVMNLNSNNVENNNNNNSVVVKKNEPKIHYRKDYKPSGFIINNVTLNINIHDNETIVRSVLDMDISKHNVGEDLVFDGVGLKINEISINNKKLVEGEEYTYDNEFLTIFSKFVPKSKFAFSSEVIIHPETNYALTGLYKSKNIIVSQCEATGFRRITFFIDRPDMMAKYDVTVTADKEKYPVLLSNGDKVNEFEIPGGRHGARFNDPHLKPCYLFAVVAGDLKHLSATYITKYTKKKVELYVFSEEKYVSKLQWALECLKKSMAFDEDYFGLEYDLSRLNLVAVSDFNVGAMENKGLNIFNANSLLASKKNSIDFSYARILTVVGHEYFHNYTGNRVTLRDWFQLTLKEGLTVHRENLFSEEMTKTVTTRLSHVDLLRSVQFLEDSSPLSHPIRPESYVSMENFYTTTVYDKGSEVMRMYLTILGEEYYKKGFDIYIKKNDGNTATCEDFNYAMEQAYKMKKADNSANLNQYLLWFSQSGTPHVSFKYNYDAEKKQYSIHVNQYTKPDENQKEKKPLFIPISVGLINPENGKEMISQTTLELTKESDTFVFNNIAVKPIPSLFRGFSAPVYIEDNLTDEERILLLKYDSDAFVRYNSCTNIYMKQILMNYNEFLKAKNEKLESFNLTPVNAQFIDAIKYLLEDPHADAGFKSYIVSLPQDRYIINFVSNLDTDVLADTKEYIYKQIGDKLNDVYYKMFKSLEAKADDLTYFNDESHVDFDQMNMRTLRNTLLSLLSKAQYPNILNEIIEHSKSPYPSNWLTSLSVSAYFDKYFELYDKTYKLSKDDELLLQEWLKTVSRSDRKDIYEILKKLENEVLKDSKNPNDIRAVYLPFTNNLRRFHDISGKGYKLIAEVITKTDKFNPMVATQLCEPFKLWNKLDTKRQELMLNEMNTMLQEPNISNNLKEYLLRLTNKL

[17] = molecular target: Lysosomal acid glucosylceramidase (Homo sapiens, UniProt P04062); test: Dose response cell-based high throughput screening assay to identify enhancers of beta-glucosidase activity. [Related pubchem assays: 784 ]; type: functional
Sequence of Lysosomal acid glucosylceramidase (P04062 whole entry): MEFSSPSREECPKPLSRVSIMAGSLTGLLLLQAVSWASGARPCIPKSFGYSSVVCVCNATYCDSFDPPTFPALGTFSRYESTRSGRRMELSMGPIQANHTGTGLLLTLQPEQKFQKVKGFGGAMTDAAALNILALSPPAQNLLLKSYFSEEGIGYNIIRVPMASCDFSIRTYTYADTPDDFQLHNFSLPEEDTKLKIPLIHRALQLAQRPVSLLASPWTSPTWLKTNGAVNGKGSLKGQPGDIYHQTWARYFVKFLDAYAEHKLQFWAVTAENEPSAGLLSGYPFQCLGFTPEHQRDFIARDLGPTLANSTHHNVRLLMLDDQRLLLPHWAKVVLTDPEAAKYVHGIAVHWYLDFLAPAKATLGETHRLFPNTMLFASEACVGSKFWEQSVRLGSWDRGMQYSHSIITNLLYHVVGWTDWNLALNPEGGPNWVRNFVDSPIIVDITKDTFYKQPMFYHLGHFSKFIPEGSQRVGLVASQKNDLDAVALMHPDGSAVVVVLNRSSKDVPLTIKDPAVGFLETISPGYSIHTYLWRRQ

Cytochrome P450 2C9 = Cytochrome P450 2C9 (Homo sapiens, UniProt P11712)
Cytochrome P450 2C19 [18] = molecular target: T7, Cytochrome P450 2C19; test: Cytochrome panel assay with activity outcomes. Panel member name: p450-cyp2c19 Compounds with AC50 equal or less than 10 uM are considered active; type: functional
[19] = molecular target: G-protein coupled receptor 55 (Homo sapiens, UniProt Q9Y2T6); test: inhibition of LPI-stimulated GPR55 beta-arrestin translocation – imaging, U2OS, beta-arrestin-GFP, LPI agonist, primary screen (AID 2013); type: functional;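 note: antagonist potency measured as reduced agonist-driven arrestin aggregation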
Sequence of G-protein coupled receptor 55 (Q9Y2T6 whole entry): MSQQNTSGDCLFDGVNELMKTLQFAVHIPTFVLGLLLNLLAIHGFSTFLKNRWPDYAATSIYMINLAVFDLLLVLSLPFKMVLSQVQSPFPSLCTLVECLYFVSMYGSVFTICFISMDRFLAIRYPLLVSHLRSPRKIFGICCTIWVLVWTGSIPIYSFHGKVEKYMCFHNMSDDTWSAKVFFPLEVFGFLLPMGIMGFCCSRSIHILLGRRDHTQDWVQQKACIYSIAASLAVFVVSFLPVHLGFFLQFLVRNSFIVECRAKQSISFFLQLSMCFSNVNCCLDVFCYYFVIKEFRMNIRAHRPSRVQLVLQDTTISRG

Sequence of Induced myeloid leukemia cell differentiation protein Mcl-1 (Q07820 whole entry): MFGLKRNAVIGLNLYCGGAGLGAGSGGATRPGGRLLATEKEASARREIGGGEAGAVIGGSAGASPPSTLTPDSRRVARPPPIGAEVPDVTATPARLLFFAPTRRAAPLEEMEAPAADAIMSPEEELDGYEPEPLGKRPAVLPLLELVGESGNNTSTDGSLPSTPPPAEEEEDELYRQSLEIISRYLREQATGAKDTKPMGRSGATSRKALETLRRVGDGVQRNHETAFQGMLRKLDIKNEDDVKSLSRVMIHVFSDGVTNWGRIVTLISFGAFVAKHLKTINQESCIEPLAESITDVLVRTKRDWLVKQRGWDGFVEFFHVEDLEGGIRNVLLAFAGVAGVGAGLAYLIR

CSc1nc(NCCOCCO)c2sc3nc(-c4ccco4)c4c(c3c2n1)CCC4
IC50 [1]: 1.92 µM (active) | IC50 (Ephrin type-A receptor 4): > 100 µM (not active) | IC50 [2]: 1.98 µM (active) | IC50 (Estrogen receptor): > 50 µM (not active) | EC50 [3]: 6.86 µM (active) | IC50 [4]: 14.7 µM (active) | EC50 [5]: 8.85 µM (active)

CCOc1cc(C(=O)NC(=S)Nn2cnnc2)cc(OCC)c1OCC
IC50 (Aspartyl aminopeptidase): 0.921 µM (active) | IC50 (Procathepsin L): > 59.6 µM (not active)

CC1=NN(c2nc3ccccc3[nH]2)C(=O)/C1=C/N(C)C
AC50 [6]: 6.12 µM (active) | EC50 [7]: 12.3 µM (active) | AC50 (INS1): 2.48 µM (active) | EC50 [8]: > 100 µM (inactive) | EC50 [9]: 11.4 µM (active) | EC50 [10]: 23.2 µM (active)

Cc1cc(C)nc(N(C#N)Cc2ccc([N+](=O)[O-])cc2)n1
AC50 [11]: > 100 µM (inactive)

NS(=O)(=O)c1ccc(-c2ccc(/C=C3\SC(=S)N(C4CCS(=O)(=O)C4)C3=O)o2)cc1 (centres undefined)
EC50 [12]: 29.4 µM (active) | IC50 [1]: 1.85 µM (active) | IC50 [13]: 1.32 µM (active) | EC50 (Streptococcus): 32.2 µM (active) | EC50 [14]: 7.36 µM (active) | IC50 [15]: > 100 µM (inactive) | EC50 (Streptokinase A): > 150 µM (not active)

Cn1cc(/C=C2\SC(=S)N(NC(=O)c3ccccc3)C2=O)c2ccccc21
EC50 (Troponin, cardiac muscle): 1.47 µM (active)

CCOC(=O)c1ccc(NC(=O)c2ccco2)cc1
AC50 [11]: 57.2 µM (active)

CCOC(=O)[C@]1(C(NC(=O)OC)c2cccc(F)c2)CCCC1=O (some centres undefined)
AC50 (Cytochrome P450 2D6): 3.98 µM (inconclusive) | AC50 (Cytochrome P450 2C19 [16]): 3.98 µM (inconclusive)

COc1ccc(C(=O)n2cnnc2N)cc1
IC50 (Aspartyl aminopeptidase): 2.51 µM (active) | IC50 (Procathepsin L): > 59.6 µM (not active)

CC(=O)Nc1cccc(NC(=O)C2CCCN2C(=O)Nc2ccc(C)cc2)c1 (centres undefined)
IC50 (Aminopeptidase N): 61.3 µM (active) | EC50 [17]: > 50 µM (not active)

COc1cccc2cc(NC(=O)C3CCCCC3)c(=O)oc12
AC50 (Cytochrome P450 2C9): inconclusive | EC50 [17]: > 50 µM (not active) | AC50 (Cytochrome P450 2C19 [18]): 39.8 µM (inconclusive)

Cc1ccc(-c2nc(SCC(=O)N(C)C3CCS(=O)(=O)C3)[nH]c2-c2ccc(C)cc2)cc1 (centres undefined)
IC50 [19]: 3.83 µM (active)

Cc1nn(C)c(C(=O)NN=C(S)NCc2ccccc2)c1Cl
EC50 [7]: 14.8 µM (active) | EC50 [8]: > 100 µM (inactive) | EC50 [9]: 17.3 µM (active) | EC50 [10]: 17 µM (active)
